Laboratory results from ChEMBL document CHEMBL3822402, “Discovery of potent macrocyclic HCV NS5A inhibitors” (Bioorg Med Chem Lett, 2016).

How the values were obtained:
Type in all cases: functional, organism-based, Hepacivirus hominis
[1] = system: Hepatitis C virus; test: Antiviral activity against HCV genotype 2a by real time PCR analysis
[2] = system: Hepatitis C virus; test: Antiviral activity against HCV genotype 1a harboring NS5A Y93H mutant by real time PCR analysis; details: subtype 1a
[3] = system: Hepatitis C virus; test: Antiviral activity against HCV genotype 1b by real time PCR analysis
[4] = system: Hepatitis C virus; test: Antiviral activity against HCV genotype 1a by real time PCR analysis; details: subtype 1a
[5] = system: Hepatitis C virus; test: Antiviral activity against HCV genotype 3a by real time PCR analysis
[6] = system: Hepatitis C virus; test: Antiviral activity against HCV genotype 1b in presence of 10% FBS by real time PCR analysis
[7] = system: Hepatitis C virus; test: Antiviral activity against HCV genotype 1a in presence of 10% FBS by real time PCR analysis; details: subtype 1a

Compound	EC50 [1]	EC50 [2]	EC50 [3]	EC50 [4]	EC50 [5]	EC50 [6]	EC50 [7]
COC(=O)N[C@H](C(=O)N1C[C@H](OC)C[C@H]1c1ncc(-c2ccc(-c3ccc4c(ccc5nc([C@@H]6[C@H]7CC[C@H](C7)N6C(=O)[C@@H](NC(=O)OC)C(C)C)[nH]c54)c3)cc2)[nH]1)C(C)C	0.02 nM	43 nM	0.007 nM	0.05 nM	–	–	–
COC(=O)N[C@H](C(=O)N1CCC[C@H]1c1ncc(-c2ccc(-c3ccc4c(ccc5nc([C@@H]6CCCN6C(=O)[C@@H](NC(=O)OC)C(C)C)[nH]c54)c3)cc2O)[nH]1)C(C)C	0.2 nM	201 nM	0.004 nM	0.08 nM	–	–	–
COC(=O)N[C@H](C(=O)N1CCC[C@H]1c1ncc(-c2ccc(-c3ccc4c(ccc5nc([C@@H]6CCCN6C(=O)[C@@H](NC(=O)OC)C(C)C)[nH]c54)c3)cc2C)[nH]1)C(C)C	0.09 nM	–	0.002 nM	0.02 nM	–	–	–
COC(=O)N[C@H](C(=O)N1CCC[C@H]1c1nc2ccc3cc(-c4ccc(-c5c[nH]c([C@@H]6C[C@@H]7CN6C(=O)[C@H](C(C)C)NC(=O)OCCC/C=C/CO7)n5)cc4)ccc3c2[nH]1)C(C)C	–	43 nM	0.006 nM	0.01 nM	0.04 nM	–	–
COC(=O)N[C@H](C(=O)N1C[C@H](N)C[C@H]1c1ncc(-c2ccc(-c3ccc4c(ccc5nc([C@@H]6CCCN6C(=O)[C@@H](NC(=O)OC)C(C)C)[nH]c54)c3)cc2)[nH]1)C(C)C	2 nM	987 nM	0.03 nM	0.4 nM	–	–	–
COC(=O)N[C@H](C(=O)N1CCC[C@H]1c1ncc(-c2ccc(-c3ccc4c(c3)c(Cl)cc3nc([C@@H]5CCCN5C(=O)[C@@H](NC(=O)OC)C(C)C)[nH]c34)cc2)[nH]1)C(C)C	0.004 nM	121 nM	0.003 nM	0.01 nM	–	–	–
COC(=O)N[C@H](C(=O)N1CCC[C@H]1c1ncc(-c2ccc(-c3ccc4c(ccc5nc([C@@H]6CCCN6C(=O)[C@@H](NC(=O)OC)C(C)C)[nH]c54)c3)cc2C2CC2)[nH]1)C(C)C	0.2 nM	–	0.002 nM	0.1 nM	–	–	–
COC(=O)N[C@H](C(=O)N1CCC[C@H]1c1ncc(-c2ccc(-c3ccc4c(ccc5nc([C@@H]6[C@H]7CC[C@H](C7)N6C(=O)[C@@H](NC(=O)OC)C(C)C)[nH]c54)c3)cc2)[nH]1)C(C)C	0.02 nM	93 nM	0.005 nM	0.02 nM	–	–	–
COC(=O)N[C@H](C(=O)N1CCC[C@H]1c1nc2ccc3cc(-c4ccc5c(c4)OCCCCCCOC(=O)N[C@@H](C(C)C)C(=O)N4CCC[C@H]4c4ncc-5[nH]4)ccc3c2[nH]1)C(C)C	–	857 nM	2 nM	1 nM	–	–	–
COC(=O)N[C@H](C(=O)N1C[C@H](NC(C)=O)C[C@H]1c1ncc(-c2ccc(-c3ccc4c(ccc5nc([C@@H]6CCCN6C(=O)[C@@H](NC(=O)OC)C(C)C)[nH]c54)c3)cc2)[nH]1)C(C)C	0.1 nM	225 nM	0.01 nM	0.07 nM	–	–	–
COCCO[C@@H]1C[C@@H](c2ncc(-c3ccc(-c4ccc5c(ccc6nc([C@@H]7[C@H]8CC[C@H](C8)N7C(=O)[C@@H](NC(=O)OC)C(C)C)[nH]c65)c4)cc3)[nH]2)N(C(=O)[C@@H](NC(=O)OC)C(C)C)C1	0.1 nM	404 nM	0.01 nM	> 1 nM	–	–	–
CC(C)[C@H](NC(=O)OC1(C)CC1)C(=O)N1CCC[C@H]1c1ncc(-c2ccc(-c3ccc4c(c3)c(Cl)cc3nc([C@@H]5CCCN5C(=O)[C@@H](NC(=O)OC5(C)CC5)C(C)C)[nH]c34)cc2)[nH]1	–	–	4 nM	> 1 nM	–	–	–
COC(=O)N[C@H](C(=O)N1CCC[C@H]1c1ncc(-c2ccc3oc(-c4ccc(-c5c[nH]c([C@@H]6C[C@@H]7CN6C(=O)[C@H](C(C)C)NC(=O)OC/C=C/CCCO7)n5)cc4)cc3c2)[nH]1)C(C)C	–	45 nM	0.04 nM	0.4 nM	2 nM	–	–
COC(=O)N[C@@H]1C[C@@H](c2ncc(-c3ccc(-c4ccc5c(ccc6nc([C@@H]7CCCN7C(=O)[C@@H](NC(=O)OC)C(C)C)[nH]c65)c4)cc3)[nH]2)N(C(=O)[C@@H](NC(=O)OC)C(C)C)C1	0.05 nM	80 nM	0.009 nM	0.2 nM	–	–	–
COC(=O)N[C@H](C(=O)N1CCC[C@H]1c1ncc(-c2ccc3oc(-c4ccc(-c5c[nH]c([C@@H]6C[C@@H]7CN6C(=O)[C@H](C(C)C)NC(=O)OCCCCCCO7)n5)cc4)cc3c2)[nH]1)C(C)C	–	–	–	–	–	0.2 nM	1.4 nM
COC(=O)N[C@H](C(=O)N1C[C@H](O)C[C@H]1c1ncc(-c2ccc(-c3ccc4c(ccc5nc([C@@H]6[C@H]7CC[C@H](C7)N6C(=O)[C@@H](NC(=O)OC)C(C)C)[nH]c54)c3)cc2)[nH]1)C(C)C	0.4 nM	21 nM	0.007 nM	0.2 nM	–	–	–
COC(=O)N[C@H](C(=O)N1CCC[C@H]1c1nc2ccc3cc(-c4ccc(-c5c[nH]c([C@@H]6C[C@@H]7CN6C(=O)[C@H](C(C)C)NC(=O)OCCCCCCO7)n5)cc4)ccc3c2[nH]1)C(C)C	–	188 nM	0.01 nM	0.006 nM	0.5 nM	–	–
COC(=O)N[C@H](C(=O)N1CCC[C@H]1c1nc2ccc3cc(-c4ccc(-c5cnc([C@@H]6CC[C@H]7C(=O)N[C@@H](C(C)C)C(=O)N76)[nH]5)cc4)ccc3c2[nH]1)C(C)C	–	460 nM	0.007 nM	0.3 nM	12 nM	–	–
CC(C)OC(=O)N[C@H](C(=O)N1CCC[C@H]1c1ncc(-c2ccc(-c3ccc4c(c3)c(Cl)cc3nc([C@@H]5CCCN5C(=O)[C@@H](NC(=O)OC(C)C)C(C)C)[nH]c34)cc2)[nH]1)C(C)C	–	–	35 nM	> 1 nM	–	–	–
COC(=O)N[C@H](C(=O)N1CCC[C@H]1c1ncc(-c2ccc(-c3ccc4c(ccc5nc([C@@H]6CCCN6C(=O)[C@@H](NC(=O)OC)C(C)C)[nH]c54)c3)cc2OCCN2CCOCC2)[nH]1)C(C)C	> 10 nM	1340 nM	2 nM	> 1 nM	–	–	–
COCCOC(=O)N[C@H](C(=O)N1CCC[C@H]1c1ncc(-c2ccc(-c3ccc4c(c3)c(Cl)cc3nc([C@@H]5CCCN5C(=O)[C@@H](NC(=O)OCCOC)C(C)C)[nH]c34)cc2)[nH]1)C(C)C	> 1 nM	> 1000 nM	15 nM	> 1 nM	–	–	–
